Assays:
[1] = Intrinsic dissolution rate (IDR); format: physicochemical; conditions: for Detection in dissolution medium (IDR test): total 120 min
Procedure: Testing media: water, 0.1N HCl, pH 6.8 USP buffer
About 200 mg Polymorph Form A was weighed into the intrinsic dissolution apparatus (diameter: 0.795 cm) and compressed for 1 minute with 1 ton compression force to make the material compact. The intrinsic dissolution apparatus was slid into the dissolution test chuck and tightened. The shaft in the spindle was adjusted to ensure the exposed surface of the compacted tablet was 3.8 cm from the bottom of the vessel when lowered. The temperature of chamber water was set at 37° C., the shaft rotation at 100 rpm, and the sampling time points at 2, 5, 10, 15, 20, 30, 45, 60, 90 and 120 min. 5 mL of solution was sampled at each time point, and the samples filtered with 0.45 μm filter. The concentration of the filtrates was analyzed by HPLC.

[2] = Long-term stability (ICH), 25° C./60% RH; format: physicochemical; conditions: 25° C./60% RH
Procedure: Polymorph Form A was manufactured under Good Manufacturing Practices (GMP)-compliant conditions at a scale of 1.26 kg. The container closure for the batch consisted of double-lined low density polyethylene bags placed inside fiberboard drums, and the batch was on ICH stability under storage conditions of 25° C./60% relative humidity (RH) and 40° C./75% RH. Long-term stability data through the 36-month interval and accelerated stability data through the 6-month interval are shown in Tables 2 and 3.
Stability samples were tested according to the protocol (Table 5) and to the same specification as the drug substance. The available stability data for samples stored at 25° C./60% RH and 40° C./75% RH are summarized.

For `Cc1cc(C)c(-c2ccc(NC(=O)[C@H](Cc3ccc(C(=O)NCCS(=O)(=O)[O-])cc3)c3ccc(-c4ccc(C(C)(C)C)cc4)cc3)cc2)c(C)c1.[Na+]` [Polymorph Form A, Sodium (R)-2-(4-(2-(4′-(tert-butyl)-[1,1′-biphenyl]-4-yl)-3-oxo-3-((2′,4′,6′-trimethyl-[1,1′-biphenyl]-4-yl)amino)propyl)benzamido)ethane-1-sulfonate], the “Detection in dissolution medium (IDR test)” value ([1]; 0.1N HCl) was “could not be detected”, the “Intrinsic dissolution rate (mg/cm^2/min)” value ([1]; Water, 37° C., 100 rpm, from data of 10, 15 and 20 min) was 0.9681 mg/cm^2/min and the “Detection in dissolution medium (IDR test)” value ([1]; pH 6.8 USP buffer) was “could not be detected”. The “Concentration in dissolution medium (IDR test)” value ([1]; water, within 5 min, not detected, LOQ) was < 0.3051 µg/mL, the Appearance ([2]; 0 months) was “White” and the “Assay (anhydrous w/w %)” value ([2]; 0 months) was 101.3 w/w %. The “Chiral purity (area %)” value ([2]; 0 months) was 99.9 area %, the “Individual related substance (area %, w/w), RRT 0.46” value ([2]; 0 months) was 0.08 area %, w/w and the “Individual related substance (area %, w/w), RRT 0.64” value ([2]; 0 months) was 0.12 area %, w/w. For the same compound, the “Individual related substance (area %, w/w), RRT 1.20” value ([2]; 0 months) was 0.05 area %, w/w, the “Purity (% area)” value ([2]; 0 months) was 99.8 % area and the Total related substances ([2]; 0 months) was 0.25%. For the same compound, the “Water content (%)” value ([2]; 0 months) was 2.1%, the Appearance ([2]; 3 months) was “White” and the “Assay (anhydrous w/w %)” value ([2]; 3 months) was 102.5 w/w %. For the same compound, the “Chiral purity (area %)” value ([2]; 3 months) was 99.8 area %, the “Individual related substance (area %, w/w), RRT 0.46” value ([2]; 3 months) was 0.08 area %, w/w and the “Individual related substance (area %, w/w), RRT 0.64” value ([2]; 3 months) was 0.12 area %, w/w. The “Individual related substance (area %, w/w), RRT 1.20” value ([2]; 3 months) was 0.05 area %, w/w, the “Purity (% area)” value ([2]; 3 months) was 99.8 % area and the Total related substances ([2]; 3 months) was 0.25%. The “Water content (%)” value ([2]; 3 months) was 6.1%, the Appearance ([2]; 6 months) was “White” and the “Assay (anhydrous w/w %)” value ([2]; 6 months) was 101.1 w/w %. For the same compound, the “Chiral purity (area %)” value ([2]; 6 months) was 99.8 area %, the “Individual related substance (area %, w/w), RRT 0.46” value ([2]; 6 months) was 0.08 area %, w/w and the “Individual related substance (area %, w/w), RRT 0.64” value ([2]; 6 months) was 0.11 area %, w/w. The “Individual related substance (area %, w/w), RRT 1.20” value ([2]; 6 months) was 0.05 area %, w/w, the “Purity (% area)” value ([2]; 6 months) was 99.8 % area and the Total related substances ([2]; 6 months) was 0.24%. For the same compound, the “Water content (%)” value ([2]; 6 months) was 6.5%, the XRPD ([2]; 6 months) was “Same” and the Appearance ([2]; 9 months) was “White”. The “Assay (anhydrous w/w %)” value ([2]; 9 months) was 101.1 w/w %, the “Chiral purity (area %)” value ([2]; 9 months) was 99.6 area % and the “Individual related substance (area %, w/w), RRT 0.46” value ([2]; 9 months) was 0.08 area %, w/w. For the same compound, the “Individual related substance (area %, w/w), RRT 0.64” value ([2]; 9 months) was 0.12 area %, w/w, the “Individual related substance (area %, w/w), RRT 1.20” value ([2]; 9 months) was 0.05 area %, w/w and the “Purity (% area)” value ([2]; 9 months) was 99.8 % area. For the same compound, the Total related substances ([2]; 9 months) was 0.25%, the “Water content (%)” value ([2]; 9 months) was 6.7% and the Appearance ([2]; 12 months) was “White”. For the same compound, the “Assay (anhydrous w/w %)” value ([2]; 12 months) was 101.0 w/w %, the “Chiral purity (area %)” value ([2]; 12 months) was 99.4 area % and the “Individual related substance (area %, w/w), RRT 0.46” value ([2]; 12 months) was 0.08 area %, w/w. The “Individual related substance (area %, w/w), RRT 0.64” value ([2]; 12 months) was 0.11 area %, w/w, the “Individual related substance (area %, w/w), RRT 1.20” value ([2]; 12 months) was 0.05 area %, w/w and the “Purity (% area)” value ([2]; 12 months) was 99.8 % area. For the same compound, the Total related substances ([2]; 12 months) was 0.24%, the “Water content (%)” value ([2]; 12 months) was 7.0% and the XRPD ([2]; 12 months) was “Same”. For the same compound, the Appearance ([2]; 18 months) was “White” and the “Assay (anhydrous w/w %)” value ([2]; 18 months) was 100.9 w/w %.

Source: patent US12208071B2, “Glucagon receptor antagonists” (LIGAND PHARMACEUTICALS INCORPORATED, priority 2018, dated 2025)
